These results are taken from US4101556A, “Total synthesis of 2,5-dideoxystreptamines” (Bristol-Myers Company, priority 1977, dated 1978).

Assay [1] concerns P. aerug. 20601. Kind of assay: Minimum Inhibitory Concentration against P. aerug. 20601. In kind it is cell-based. Particulars: Mueller-Hinton Broth, 10^-4 organism dilution, read-out: M.I.C. (Minimum Inhibitory Concentration). The text has this: (§1) Minimum Inhibitory Concentration Of
(§2) 5-deoxykanamycin A Against Various
(§3) Microorganisms (mcg./ml.)
(§4) ^a = 45% Antibiotic Assay Broth, 50% Mueller-Hinton Broth and 5%
(§5) serum. All others are Mueller-Hinton Broth.
(§6) ^b = 10^-3 Organism dilution. All others are 10^-4 organism

In assay [2] the test system is S. pyogenes 9604. Description: Minimum Inhibitory Concentration against S. pyogenes 9604. In kind it is cell-based. To be noted: Streptococcus pyogenes, 45% Antibiotic Assay Broth, 50% Mueller-Hinton Broth and 5% serum, 10^-3 organism dilution, read-out: M.I.C. (Minimum Inhibitory Concentration).
Description: as §1, §2, §3, §4, §5, §6

Assay [3] concerns P. aerug. 20717. Kind of assay: Minimum Inhibitory Concentration against P. aerug. 20717. It is filed as cell-based. To be noted: Mueller-Hinton Broth, 10^-4 organism dilution, read-out: M.I.C. (Minimum Inhibitory Concentration).
Description: as §1, §2, §3, §4, §5, §6

Assay [4] concerns S. marc. 20019. Kind of assay: Minimum Inhibitory Concentration against S. marc. 20019. It is filed as cell-based. To be noted: Mueller-Hinton Broth, 10^-4 organism dilution, read-out: M.I.C. (Minimum Inhibitory Concentration).
Description: as §1, §2, §3, §4, §5, §6

The test system of assay [5] is E. coli 21218. Description: Minimum Inhibitory Concentration against E. coli 21218. It is filed as cell-based. Particulars: Escherichia coli, Mueller-Hinton Broth, 10^-3 organism dilution, read-out: M.I.C. (Minimum Inhibitory Concentration).
Description: as §1, §2, §3, §4, §5, §6

Assay [6] has as its system E. cloacae 20364. Description: Minimum Inhibitory Concentration against E. cloacae 20364. Particulars: Enterobacter cloacae, Mueller-Hinton Broth, 10^-3 organism dilution, read-out: M.I.C. (Minimum Inhibitory Concentration). It is filed as cell-based.
Description: as §1, §2, §3, §4, §5, §6

The test system of assay [7] is P. rettgeri 21207. Description: Minimum Inhibitory Concentration against P. rettgeri 21207. It is filed as cell-based. To be noted: Providencia rettgeri, Mueller-Hinton Broth, 10^-3 organism dilution, read-out: M.I.C. (Minimum Inhibitory Concentration).
Description: as §1, §2, §3, §4, §5, §6

In assay [8] the test system is S. aureus 20240. Description: Minimum Inhibitory Concentration against S. aureus 20240. It is filed as cell-based. To be noted: Staphylococcus aureus, Mueller-Hinton Broth, 10^-4 organism dilution, read-out: M.I.C. (Minimum Inhibitory Concentration).
Description: as §1, §2, §3, §4, §5, §6

Assay [9] relates to K. pneum. 9977. Kind of assay: Minimum Inhibitory Concentration against K. pneum. 9977. It is filed as cell-based. Particulars: Mueller-Hinton Broth, 10^-4 organism dilution, read-out: M.I.C. (Minimum Inhibitory Concentration).
Description: as §1, §2, §3, §4, §5, §6

Assay [10] relates to E. coli 20665. Description: Minimum Inhibitory Concentration against E. coli 20665. In kind it is cell-based. Particulars: Escherichia coli, Mueller-Hinton Broth, 10^-3 organism dilution, read-out: M.I.C. (Minimum Inhibitory Concentration).
Description: as §1, §2, §3, §4, §5, §6

The subject of assay [11] is E. coli 20732. Kind of assay: Minimum Inhibitory Concentration against E. coli 20732. In kind it is cell-based. Particulars: Escherichia coli, Mueller-Hinton Broth, 10^-3 organism dilution, read-out: M.I.C. (Minimum Inhibitory Concentration).
Description: as §1, §2, §3, §4, §5, §6

In assay [12] the test system is P. aerug. 20653. Kind of assay: Minimum Inhibitory Concentration against P. aerug. 20653. It is filed as cell-based. To be noted: Mueller-Hinton Broth, 10^-4 organism dilution, read-out: M.I.C. (Minimum Inhibitory Concentration).
Description: as §1, §2, §3, §4, §5, §6

Assay [13] has as its system S. aureus 9606. Kind of assay: Minimum Inhibitory Concentration against S. aureus 9606. It is filed as cell-based. Particulars: Staphylococcus aureus, Mueller-Hinton Broth, 10^-4 organism dilution, read-out: M.I.C. (Minimum Inhibitory Concentration).
Description: as §1, §2, §3, §4, §5, §6

The subject of assay [14] is P. aerug. 20741. Description: Minimum Inhibitory Concentration against P. aerug. 20741. In kind it is cell-based. To be noted: Mueller-Hinton Broth, 10^-4 organism dilution, read-out: M.I.C. (Minimum Inhibitory Concentration).
Description: as §1, §2, §3, §4, §5, §6

Assay [15] deals with S. aureus 9537. Description: Minimum Inhibitory Concentration against S. aureus 9537. It is filed as cell-based. To be noted: Staphylococcus aureus, Mueller-Hinton Broth, 10^-4 organism dilution, read-out: M.I.C. (Minimum Inhibitory Concentration).
Description: as §1, §2, §3, §4, §5, §6

Assay [16] deals with P. stuartii 20894. Kind of assay: Minimum Inhibitory Concentration against P. stuartii 20894. In kind it is cell-based. Particulars: Providencia stuartii, Mueller-Hinton Broth, 10^-3 organism dilution, read-out: M.I.C. (Minimum Inhibitory Concentration).
Description: as §1, §2, §3, §4, §5, §6

The subject of assay [17] is S. marc. 20460. Description: Minimum Inhibitory Concentration against S. marc. 20460. It is filed as cell-based. To be noted: Mueller-Hinton Broth, 10^-4 organism dilution, read-out: M.I.C. (Minimum Inhibitory Concentration).
Description: as §1, §2, §3, §4, §5, §6

In assay [18] the test system is P. stuartii 21210. Description: Minimum Inhibitory Concentration against P. stuartii 21210. In kind it is cell-based. Particulars: Providencia stuartii, Mueller-Hinton Broth, 10^-4 organism dilution, read-out: M.I.C. (Minimum Inhibitory Concentration).
Description: as §1, §2, §3, §4, §5, §6

Assay [19] has as its system E. coli 20683. Kind of assay: Minimum Inhibitory Concentration against E. coli 20683. It is filed as cell-based. To be noted: Escherichia coli, Mueller-Hinton Broth, 10^-3 organism dilution, read-out: M.I.C. (Minimum Inhibitory Concentration).
Description: as §1, §2, §3, §4, §5, §6

Assay [20] relates to P. rettgeri 9637. Description: Minimum Inhibitory Concentration against P. rettgeri 9637. In kind it is cell-based. To be noted: Providencia rettgeri, Mueller-Hinton Broth, 10^-4 organism dilution, read-out: M.I.C. (Minimum Inhibitory Concentration).
Description: as §1, §2, §3, §4, §5, §6

Assay [21] relates to P. aerug. 9843A. Kind of assay: Minimum Inhibitory Concentration against P. aerug. 9843A. It is filed as cell-based. Particulars: Mueller-Hinton Broth, 10^-4 organism dilution, read-out: M.I.C. (Minimum Inhibitory Concentration).
Description: as §1, §2, §3, §4, §5, §6

The subject of assay [22] is E. coli 9632. Kind of assay: Minimum Inhibitory Concentration against E. coli 9632. Particulars: Escherichia coli, Mueller-Hinton Broth, 10^-3 organism dilution, read-out: M.I.C. (Minimum Inhibitory Concentration). In kind it is cell-based.
Description: as §1, §2, §3, §4, §5, §6

Assay [23] concerns E. coli 20895. Kind of assay: Minimum Inhibitory Concentration against E. coli 20895. It is filed as cell-based. Particulars: Escherichia coli, Mueller-Hinton Broth, 10^-3 organism dilution, read-out: M.I.C. (Minimum Inhibitory Concentration).
Description: as §1, §2, §3, §4, §5, §6

The subject of assay [24] is S. pneum. 9585. Kind of assay: Minimum Inhibitory Concentration against S. pneum. 9585. In kind it is cell-based. To be noted: Mueller-Hinton Broth, 10^-4 organism dilution, read-out: M.I.C. (Minimum Inhibitory Concentration).
Description: as §1, §2, §3, §4, §5, §6

Assay [25] concerns E. cloacae 21006. Kind of assay: Minimum Inhibitory Concentration against E. cloacae 21006. In kind it is cell-based. Particulars: Enterobacter cloacae, Mueller-Hinton Broth, 10^-3 organism dilution, read-out: M.I.C. (Minimum Inhibitory Concentration).
Description: as §1, §2, §3, §4, §5, §6

In assay [26] the test system is E. cloacae 9656. Description: Minimum Inhibitory Concentration against E. cloacae 9656. It is filed as cell-based. To be noted: Enterobacter cloacae, Mueller-Hinton Broth, 10^-4 organism dilution, read-out: M.I.C. (Minimum Inhibitory Concentration).
Description: as §1, §2, §3, §4, §5, §6

The test system of assay [27] is P. aerug. 21509. Kind of assay: Minimum Inhibitory Concentration against P. aerug. 21509. It is filed as cell-based. To be noted: Mueller-Hinton Broth, 10^-4 organism dilution, read-out: M.I.C. (Minimum Inhibitory Concentration).
Description: as §1, §2, §3, §4, §5, §6

Assay [28] has as its system P. mirab. 9900. Description: Minimum Inhibitory Concentration against P. mirab. 9900. To be noted: Mueller-Hinton Broth, 10^-4 organism dilution, read-out: M.I.C. (Minimum Inhibitory Concentration). In kind it is cell-based.
Description: as §1, §2, §3, §4, §5, §6

For assay [29] the following is noted: background statement on positional isomers; cited from earlier work.

The structures appear in SMILES notation. Values after ≈ are worked out from the molar mass of the structure shown.

For `NC[C@H]1O[C@H](O[C@H]2C[C@@H](O[C@H]3O[C@H](CO)[C@@H](O)[C@H](N)[C@H]3O)[C@H](N)C[C@@H]2N)[C@H](O)[C@@H](O)[C@@H]1O` [5-deoxykanamycin A, 5-Deoxykanamycin A], the MIC in assay [1] was more than 125 µg/mL; in assay [2] it was 125 µg/mL (≈ 267 µM); in [3] it was more than 125 µg/mL; in assay [4], 32 µg/mL (≈ 68.3 µM); in assay [5], more than 125 µg/mL; in assay [6], more than 125 µg/mL. In addition, the MIC in assay [7] is 16 µg/mL (≈ 34.2 µM); in [8], more than 125 µg/mL; in [9], 1 µg/mL (≈ 2.13 µM); in [10], more than 125 µg/mL; in assay [11], 125 µg/mL (≈ 267 µM); in assay [12], more than 125 µg/mL. For the same compound, the MIC in assay [13] was 4 µg/mL (≈ 8.54 µM); in assay [14], more than 125 µg/mL; in assay [15], 2 µg/mL (≈ 4.27 µM); in assay [16], 32 µg/mL (≈ 68.3 µM); in assay [17], more than 125 µg/mL; in [18], 4 µg/mL (≈ 8.54 µM). Further, the MIC in [19] was more than 125 µg/mL; in [20], 1 µg/mL (≈ 2.13 µM); in [21] it was more than 125 µg/mL; in assay [22], 8 µg/mL (≈ 17.1 µM); in assay [23] it was 8 µg/mL (≈ 17.1 µM); in assay [24] it was 125 µg/mL (≈ 267 µM). Besides, the MIC was more than 125 µg/mL in assay [25], 8 µg/mL (≈ 17.1 µM) in assay [26], more than 125 µg/mL in [27] and 32 µg/mL (≈ 68.3 µM) in assay [28].

On to `NC[C@H]1O[C@H](O[C@H]2[C@H](O)[C@@H](O)[C@H](N)C[C@@H]2N)[C@H](N)[C@@H](O)[C@@H]1O` [neamine, 4-0-(2,6-dideoxy-2,6-diamino-α-D-glycopynanosyl) 2-deoxystreptamine], for which the antibiotic activity result in assay [29] is recorded as “biologically active”.
